In ChEMBL document CHEMBL3880422, “C-terminal modified oxamyl dipeptides as inhibitors of the ICE/ced-3 family of cysteine proteases” (2007):

Legend:
Caspase-1 (Mus musculus) = molecular target: T1, Caspase-1 (Mus musculus) (UniProt P29452); assay: (§1) Inhibition of mouse recombinant ICE assessed as ratio of irreversible rate constant K3 to dissociation constant of the reversible binding step Ki pre-incubated for 60 mins with Acetyl-Tyr-Val-Ala-Asp-amino-4-methylcoumarin substrate followed by enzyme addition by fluorescence based assay
T1 sequence (whole entry): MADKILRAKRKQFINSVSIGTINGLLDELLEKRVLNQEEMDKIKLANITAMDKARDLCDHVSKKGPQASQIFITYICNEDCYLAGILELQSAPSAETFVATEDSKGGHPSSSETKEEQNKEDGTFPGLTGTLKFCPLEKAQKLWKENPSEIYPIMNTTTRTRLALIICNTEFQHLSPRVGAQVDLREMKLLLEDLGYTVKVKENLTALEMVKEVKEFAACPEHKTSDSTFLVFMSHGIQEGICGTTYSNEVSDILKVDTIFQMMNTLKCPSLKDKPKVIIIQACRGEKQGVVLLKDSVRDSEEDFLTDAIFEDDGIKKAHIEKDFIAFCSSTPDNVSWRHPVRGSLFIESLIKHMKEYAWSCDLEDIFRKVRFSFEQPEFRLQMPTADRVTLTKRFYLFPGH

Caspase-3 (Homo sapiens) = molecular target: T2, Caspase-3 (Homo sapiens) (UniProt P42574); assay: as §1, with “of” for “of mouse”, “CPP32 (unknown origin)” for “ICE”
T2 sequence (whole entry): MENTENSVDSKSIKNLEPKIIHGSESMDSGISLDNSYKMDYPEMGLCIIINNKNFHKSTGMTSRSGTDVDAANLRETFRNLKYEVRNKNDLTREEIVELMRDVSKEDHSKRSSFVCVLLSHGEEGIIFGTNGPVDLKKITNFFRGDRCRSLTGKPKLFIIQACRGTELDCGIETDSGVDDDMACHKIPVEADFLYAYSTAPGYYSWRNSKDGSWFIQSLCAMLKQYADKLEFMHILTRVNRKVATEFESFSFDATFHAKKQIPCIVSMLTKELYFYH

Caspase-6 (Homo sapiens) = molecular target: T3, Caspase-6 (Homo sapiens) (UniProt P55212); assay: Inhibition of recombinant MCH2 (unknown origin) assessed as ratio of irreversible rate constant K3 to dissociation constant of the reversible binding step Ki pre-incubated for 60 mins with Acetyl-Tyr-Val-Ala-Asp-amino-4-methylcoumarin substrate followed by enzyme addition by fluorescence based assay
T3 sequence (whole entry): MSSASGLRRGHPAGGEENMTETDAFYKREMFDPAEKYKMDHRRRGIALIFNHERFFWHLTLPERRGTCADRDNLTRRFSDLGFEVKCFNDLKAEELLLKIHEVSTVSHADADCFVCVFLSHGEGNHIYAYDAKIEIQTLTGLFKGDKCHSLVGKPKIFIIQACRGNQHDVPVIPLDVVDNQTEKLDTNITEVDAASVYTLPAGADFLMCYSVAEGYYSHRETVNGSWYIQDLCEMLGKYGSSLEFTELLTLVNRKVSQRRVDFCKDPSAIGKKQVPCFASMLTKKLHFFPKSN

Caspase-8 (Homo sapiens) = Caspase-8 (Homo sapiens) (UniProt Q14790); assay: Inhibition of recombinant MCH5 (unknown origin) assessed as ratio of irreversible rate constant K3 to dissociation constant of the reversible binding step Ki pre-incubated for 60 mins with Acetyl-Tyr-Val-Ala-Asp-amino-4-methylcoumarin substrate followed by enzyme addition by fluorescence based assay
Chain of Caspase-8 (Homo sapiens) (Q14790 217-374 limits assumed): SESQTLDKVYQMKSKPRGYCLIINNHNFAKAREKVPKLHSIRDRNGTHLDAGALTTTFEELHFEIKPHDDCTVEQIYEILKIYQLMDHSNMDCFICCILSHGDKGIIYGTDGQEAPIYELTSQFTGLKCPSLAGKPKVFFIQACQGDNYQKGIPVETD
Chain of Caspase-8 (Homo sapiens) (Q14790 385-479 limits assumed): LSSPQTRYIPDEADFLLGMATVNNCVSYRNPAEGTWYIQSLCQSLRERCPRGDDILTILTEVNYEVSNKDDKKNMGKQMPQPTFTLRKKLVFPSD

SMILES | Ratio (Caspase-1 (Mus musculus)) | Ratio (Caspase-3 (Homo sapiens)) | Ratio (Caspase-6 (Homo sapiens)) | Ratio (Caspase-8 (Homo sapiens))
C[C@H](NC(=O)C(=O)NCc1cccc2ccccc12)C(=O)N[C@@H](CC(=O)O)C(=O)COP(=O)(c1ccccc1)c1ccccc1 | 191000 M⁻¹ s⁻¹ | 245000 M⁻¹ s⁻¹ | 186000 M⁻¹ s⁻¹ | 82700 M⁻¹ s⁻¹
C[C@H](NC(=O)C(=O)NC12CC3CC(CC(C3)C1)C2)C(=O)N[C@@H](CC(=O)O)C(=O)COP(=O)(c1ccccc1)c1ccccc1 | 27600 to 242000 M⁻¹ s⁻¹ | 149000 to 243000 M⁻¹ s⁻¹ | 124000 to 445000 M⁻¹ s⁻¹ | 50400 to 643000 M⁻¹ s⁻¹
C[C@H](NC(=O)C(=O)Nc1cccc2c1CCCC2)C(=O)N[C@@H](CC(=O)O)C(=O)COC(=O)c1c(Cl)cccc1Cl | 16900 to 1.76e+07 M⁻¹ s⁻¹ | 149000 to 260000 M⁻¹ s⁻¹ | 126000 to 264000 M⁻¹ s⁻¹ | 21200 to 1.92e+06 M⁻¹ s⁻¹
C[C@H](NC(=O)C(=O)Nc1cc(C(C)(C)C)ccc1C(C)(C)C)C(=O)N[C@@H](CC(=O)O)C(=O)COc1c(F)c(F)cc(F)c1F | 195000 M⁻¹ s⁻¹ | 221000 M⁻¹ s⁻¹ | 192000 M⁻¹ s⁻¹ | 248000 M⁻¹ s⁻¹
C[C@H](NC(=O)C(=O)Nc1ccccc1F)C(=O)N[C@@H](CC(=O)O)C(=O)COc1c(F)c(F)cc(F)c1F | 339000 M⁻¹ s⁻¹ | 478000 M⁻¹ s⁻¹ | 212000 M⁻¹ s⁻¹ | 170000 M⁻¹ s⁻¹
C[C@H](NC(=O)C(=O)NC1CCCCC1)C(=O)N[C@@H](CC(=O)O)C(=O)COC(=O)c1c(Cl)cccc1Cl | 2.02e+06 M⁻¹ s⁻¹ | 1.17e+06 M⁻¹ s⁻¹ | 655000 M⁻¹ s⁻¹ | 2.14e+06 M⁻¹ s⁻¹
C[C@H](NC(=O)C(=O)Nc1ccccc1I)C(=O)N[C@@H](CC(=O)O)C(=O)COP(=O)(c1ccccc1)c1ccccc1 | 36300 M⁻¹ s⁻¹ | 78300 M⁻¹ s⁻¹ | 66200 M⁻¹ s⁻¹ | 46300 M⁻¹ s⁻¹
C[C@H](NC(=O)C(=O)Nc1ccccc1C(C)(C)C)C(=O)N[C@@H](CC(=O)O)C(=O)COc1ccccc1F | 442000 M⁻¹ s⁻¹ | 67700 M⁻¹ s⁻¹ | 54900 M⁻¹ s⁻¹ | 119000 M⁻¹ s⁻¹
CC(C)[C@H](NC(=O)C(=O)Nc1cc(C(C)(C)C)ccc1C(C)(C)C)C(=O)N[C@@H](CC(=O)O)C(=O)COc1c(F)c(F)cc(F)c1F | 767000 M⁻¹ s⁻¹ | 70600 M⁻¹ s⁻¹ | 8230 M⁻¹ s⁻¹ | 51300 M⁻¹ s⁻¹
C[C@H](NC(=O)C(=O)NCc1cccc2ccccc12)C(=O)N[C@@H](CC(=O)O)C(=O)COC(=O)c1c(Cl)cccc1Cl | 1.16e+06 M⁻¹ s⁻¹ | 187000 M⁻¹ s⁻¹ | 214000 M⁻¹ s⁻¹ | 936000 M⁻¹ s⁻¹
C[C@H](NC(=O)C(=O)Nc1cccc2c1CCCC2)C(=O)N[C@@H](CC(=O)O)C(=O)COP(=O)(c1ccccc1)c1ccccc1 | 315000 to 905000 M⁻¹ s⁻¹ | 139000 to 157000 M⁻¹ s⁻¹ | 120000 to 132000 M⁻¹ s⁻¹ | 71800 to 1.15e+06 M⁻¹ s⁻¹
C[C@H](NC(=O)C(=O)NC12CC3CC(CC(C3)C1)C2)C(=O)N[C@@H](CC(=O)O)C(=O)COC(=O)c1c(Cl)cccc1Cl | 46000 to 126000 M⁻¹ s⁻¹ | 20500 to 165000 M⁻¹ s⁻¹ | 21100 to 143000 M⁻¹ s⁻¹ | 18700 to 92600 M⁻¹ s⁻¹
CC(C)[C@H](NC(=O)C(=O)Nc1cccc2ccccc12)C(=O)NC(CC(=O)O)C(=O)CF (mixture of isomers) | 2.17e+06 M⁻¹ s⁻¹ | 413000 M⁻¹ s⁻¹ | 199000 M⁻¹ s⁻¹ | 1.16e+06 M⁻¹ s⁻¹
C[C@H](NC(=O)C(=O)Nc1ccccc1-c1ccccc1)C(=O)N[C@@H](CC(=O)O)C(=O)COP(=O)(c1ccccc1)c1ccccc1 | 345000 M⁻¹ s⁻¹ | 243000 M⁻¹ s⁻¹ | 317000 M⁻¹ s⁻¹ | 207000 M⁻¹ s⁻¹
CC(C)[C@H](NC(=O)C(=O)Nc1c(F)c(F)nc(F)c1F)C(=O)N[C@@H](CC(=O)O)C(=O)COc1c(F)c(F)cc(F)c1F | 1.22e+06 M⁻¹ s⁻¹ | 153000 M⁻¹ s⁻¹ | 170000 M⁻¹ s⁻¹ | 389000 M⁻¹ s⁻¹
C[C@H](NC(=O)C(=O)Nc1ccc(F)cc1)C(=O)N[C@@H](CC(=O)O)C(=O)COP(=O)(c1ccccc1)c1ccccc1 | 956000 M⁻¹ s⁻¹ | 268000 M⁻¹ s⁻¹ | 424000 M⁻¹ s⁻¹ | 2.3e+06 M⁻¹ s⁻¹
C[C@H](NC(=O)C(=O)Nc1ccc(F)cc1)C(=O)N[C@@H](CC(=O)O)C(=O)COC(=O)c1c(Cl)cccc1Cl | 11700 M⁻¹ s⁻¹ | 22700 M⁻¹ s⁻¹ | 18600 M⁻¹ s⁻¹ | 18700 M⁻¹ s⁻¹
C[C@H](NC(=O)C(=O)Nc1ccccc1Cl)C(=O)N[C@@H](CC(=O)O)C(=O)COC(=O)c1c(Cl)cccc1Cl | 278000 to 1.94e+06 M⁻¹ s⁻¹ | 323000 to 842000 M⁻¹ s⁻¹ | 281000 to 745000 M⁻¹ s⁻¹ | 396000 to 1.63e+06 M⁻¹ s⁻¹
C[C@H](NC(=O)C(=O)Nc1cc(C(F)(F)F)ccc1N1CCCC1)C(=O)N[C@@H](CC(=O)O)C(=O)COP(=O)(c1ccccc1)c1ccccc1 | 1.5e+06 M⁻¹ s⁻¹ | 78600 M⁻¹ s⁻¹ | 202000 M⁻¹ s⁻¹ | 933000 M⁻¹ s⁻¹
CCCOc1ccc(OCC(=O)[C@H](CC(=O)O)NC(=O)[C@@H](NC(=O)C(=O)Nc2cccc3ccccc23)C(C)C)cc1 | 825000 M⁻¹ s⁻¹ | 167000 M⁻¹ s⁻¹ | 63000 M⁻¹ s⁻¹ | 286000 M⁻¹ s⁻¹
C[C@H](NC(=O)C(=O)Nc1cc(C(C)(C)C)ccc1C(C)(C)C)C(=O)N[C@@H](CC(=O)O)C(=O)COC(=O)c1c(Cl)cccc1Cl | 289000 M⁻¹ s⁻¹ | 189000 M⁻¹ s⁻¹ | 146000 M⁻¹ s⁻¹ | 306000 M⁻¹ s⁻¹
C[C@H](NC(=O)C(=O)Nc1cc(C(F)(F)F)ccc1N1CCOCC1)C(=O)N[C@@H](CC(=O)O)C(=O)COP(=O)(c1ccccc1)c1ccccc1 | 369000 M⁻¹ s⁻¹ | 100000 M⁻¹ s⁻¹ | 98500 M⁻¹ s⁻¹ | 441000 M⁻¹ s⁻¹
C[C@H](NC(=O)C(=O)NCCc1ccccc1)C(=O)N[C@@H](CC(=O)O)C(=O)COP(=O)(c1ccccc1)c1ccccc1 | 1.23e+06 M⁻¹ s⁻¹ | 169000 M⁻¹ s⁻¹ | 131000 M⁻¹ s⁻¹ | 667000 M⁻¹ s⁻¹
CCCCCCCc1ccc(NC(=O)C(=O)N[C@H](C(=O)N[C@@H](CC(=O)O)C(=O)COc2c(F)c(F)cc(F)c2F)C(C)C)cc1 | 657000 M⁻¹ s⁻¹ | 11200 M⁻¹ s⁻¹ | 50000 M⁻¹ s⁻¹ | 155000 M⁻¹ s⁻¹
CC(C)[C@H](NC(=O)C(=O)NC12CC3CC(CC(C3)C1)C2)C(=O)N[C@@H](CC(=O)O)C(=O)COc1c(F)c(F)cc(F)c1F | 184000 M⁻¹ s⁻¹ | 6330 M⁻¹ s⁻¹ | 10700 M⁻¹ s⁻¹ | 59900 M⁻¹ s⁻¹

Now from value to molecule:

Ratio (Caspase-1 (Mus musculus)) | Ratio (Caspase-3 (Homo sapiens)) | Ratio (Caspase-6 (Homo sapiens)) | Ratio (Caspase-8 (Homo sapiens)) | SMILES
323000 M⁻¹ s⁻¹ | 3430 M⁻¹ s⁻¹ | 5850 M⁻¹ s⁻¹ | 154000 M⁻¹ s⁻¹ | C[C@H](NC(=O)C(=O)Nc1ccccc1Cc1ccccc1)C(=O)N[C@@H](CC(=O)O)C(=O)COc1c(F)c(F)cc(F)c1F
77100 M⁻¹ s⁻¹ | 13400 M⁻¹ s⁻¹ | 12600 M⁻¹ s⁻¹ | 16600 M⁻¹ s⁻¹ | CC(C)[C@H](NC(=O)C(=O)NCCc1ccccc1)C(=O)N[C@@H](CC(=O)O)C(=O)COc1c(F)c(F)cc(F)c1F
2.05e+06 M⁻¹ s⁻¹ | 27700 M⁻¹ s⁻¹ | 112000 M⁻¹ s⁻¹ | 1.16e+06 M⁻¹ s⁻¹ | CC(C)[C@H](NC(=O)C(=O)Nc1ccccc1C(C)(C)C)C(=O)N[C@@H](CC(=O)O)C(=O)COc1c(F)c(F)cc(F)c1F
2.32e+06 M⁻¹ s⁻¹ | 98600 M⁻¹ s⁻¹ | 160000 M⁻¹ s⁻¹ | 456000 M⁻¹ s⁻¹ | CC(C)[C@H](NC(=O)C(=O)NC1CCCc2ccccc21)C(=O)N[C@@H](CC(=O)O)C(=O)COc1c(F)c(F)cc(F)c1F (some centres undefined)
13900 M⁻¹ s⁻¹ | 54300 M⁻¹ s⁻¹ | 42800 M⁻¹ s⁻¹ | 23100 M⁻¹ s⁻¹ | C[C@H](NC(=O)C(=O)NCc1ccccc1)C(=O)N[C@@H](CC(=O)O)C(=O)COc1c(F)c(F)cc(F)c1F
1.08e+06 M⁻¹ s⁻¹ | 276000 M⁻¹ s⁻¹ | 230000 M⁻¹ s⁻¹ | 1.3e+06 M⁻¹ s⁻¹ | CC(C)[C@H](NC(=O)C(=O)Nc1ccccc1Br)C(=O)N[C@@H](CC(=O)O)C(=O)COc1c(F)c(F)cc(F)c1F
912 M⁻¹ s⁻¹ | 511 M⁻¹ s⁻¹ | 5580 M⁻¹ s⁻¹ | 1140 M⁻¹ s⁻¹ | CC(C)[C@H](NC(=O)C(=O)Nc1ccncc1)C(=O)N[C@@H](CC(=O)O)C(=O)COc1c(F)c(F)cc(F)c1F
2.07e+06 M⁻¹ s⁻¹ | 10800 M⁻¹ s⁻¹ | 61500 M⁻¹ s⁻¹ | 2.68e+06 M⁻¹ s⁻¹ | COc1ccccc1NC(=O)C(=O)N[C@H](C(=O)N[C@@H](CC(=O)O)C(=O)COc1c(F)c(F)cc(F)c1F)C(C)C
1.49e+06 M⁻¹ s⁻¹ | 36000 M⁻¹ s⁻¹ | 25500 M⁻¹ s⁻¹ | 598000 M⁻¹ s⁻¹ | CC(C)[C@H](NC(=O)C(=O)Nc1ccccc1)C(=O)N[C@@H](CC(=O)O)C(=O)COc1c(F)c(F)cc(F)c1F
201000 M⁻¹ s⁻¹ | 5380 M⁻¹ s⁻¹ | 1430 M⁻¹ s⁻¹ | 48600 M⁻¹ s⁻¹ | CC(C)[C@H](NC(=O)C(=O)NC(c1ccccc1)c1ccccc1)C(=O)N[C@@H](CC(=O)O)C(=O)COc1c(F)c(F)cc(F)c1F
36000 M⁻¹ s⁻¹ | 9850 M⁻¹ s⁻¹ | 11600 M⁻¹ s⁻¹ | 19500 M⁻¹ s⁻¹ | CC(C)[C@H](NC(=O)C(=O)Nc1ccccn1)C(=O)N[C@@H](CC(=O)O)C(=O)COc1c(F)c(F)cc(F)c1F
